Results on eleven compounds are retold here after US9643933B2, “Compounds useful as antibiotic tolerance inhibitors” (priority 2013, dated 2017).

For one assay, the system named is Pyocyanin. The experiment in a line: Pyocyanin Inhibition Assay. The conditions noted are these: Pseudomonas aeruginosa, PA14, 24 h, read-out: Pyocyanin Inhibition No. IC50 (μM). It is filed as cell-based, P. aeruginosa, strain PA14. How it is done: Test compounds are dissolved in DMSO at 10 mM and stored at −20° C. until needed. Seven test concentrations from 0.0032 micromolar to 31.6 micromolar are used for each compound.
P. aeruginosa, strain PA14, is inoculated into 5 mL of LB broth in a 15-mL sterile glass culture tube and incubated overnight at 37° C. under shaking (˜240 rpm). The overnight culture is then diluted in LB Broth to give an OD600=0.04 (T0 culture). Colony Forming Units (CFU)/mL of the overnight culture and T0 culture are determined by a series of 1:10 serial dilutions in sterile saline. 4×20 μL of each dilution is seeded on LB agar plates and incubated at 35±2° C. for 20 hours. CFU/mL is determined from the dilution that gives 2 to 50 colonies/20 μL.
For concentration response curve (CRC) experiments, internal standard, 2-((5-nitro-1H-indol-2-yl)thio)-N-(4-phenoxyphenyl)acetamide, a compound previously identified as an MvfR inhibitor (see Example 1 of US 2014-0066454 (WO 2012/116010)), and test compounds are serially diluted in DMSO to 200 times each final concentration (0.5% DMSO fmal), and 1 μL/well is dispensed in duplicate into 2 mL wells of a 96-well deep well plate. 200 μL/well of T0 culture are added to each internal standard/test compound well. Wells containing only T0 culture (200 200 μL/well) are used to determine pyocyanin control level and wells containing only LB broth (blank wells) are also included in the plate.
The plate is sealed and incubated at 37° C. under shaking (˜700 rpm) using a microtiter shaker for 24 hours. At the end of the incubation period, the plate is centrifuged at 4,000 g for 40 minutes at room temperature, 100 μL/well of the supernatant is transferred to a 96-microtiter PS flat-bottom plate, and absorbance at 690 nm is determined using SPECTROstar® Nano microplate reader. Pyocyanin concentration (M) is determined using the equation C=A690/(ε×d), where ε is the Pyocyanin extinction coefficient, at A690 nm ε is 4,310 M^−1 cm^−1 and d is the experimentally derived pathlength. The level of pyocyanin in the presence of test compound is expressed as percentage of inhibition with respect to the control. Curve fitting and IC50 determination were carried out using a four-parameter logistic model using GraphPad Prism v.5.

The subject of assay [1] is PQS. Kind of assay: PQS Inhibition Assay (24 Hour Incubation). It counts as cell-based, P. aeruginosa PA14 wild-type strain. The conditions noted are these: Pseudomonas aeruginosa, PA14, 24 h, read-out: PQS (24 hr) IC50 (μM). How it is done:
Test compounds are dissolved in DMSO at 10 mM and stored at −20° C. until needed. Seven test concentrations from 0.0032 micromolar to 31.6 micromolar are used for each compound. P. aeruginosa PA14 wild-type strain is inoculated into 5 mL LB broth in a 15-mL sterile glass culture tube and incubated overnight at 37° C. under shaking (˜240 rpm). The overnight culture is then diluted in LB Broth to give an OD600=0.04 (T0 culture). Colony Forming Units (CFU)/mL of the overnight culture and T0 culture are determined by a series of 1:10 serial dilutions in sterile saline. 4×20 μL of each dilution is seeded on LB agar plates and incubated at 35±2° C. for 20 hours. CFU/mL is determined from the dilution that gives 2 to 50 colonies/20 μL.
For concentration response curve (CRC) experiments, internal standard (2-((5-nitro-1H-indol-2-yl)thio)-N-(4-phenoxyphenyl)acetamide)) and test compounds are serially diluted in DMSO to give 200 times of each final concentration (0.5% DMSO final), and 1 μL/well is dispensed in duplicate into 2-mL wells of a 96 well deep well plate. 200 μL/well of T0 culture is added to each internal standard/test compound well used to determine PQS control level. Wells containing only LB broth (blank wells) are also included in the plate.
The plate is sealed and incubated at 37° C. for 24 hours under shaking (˜700 rpm) using a microtiter shaker. At the end of the incubation period, 150 μL/well of the deep well plate culture are transferred in a new non-sterile plate, and 150 μL/well of methanol containing tetra-deuterated PQS (D4-PQS) and 2% acetic acid are added to each well. The plate is sealed, shaken at high speed for 5 minutes and centrifuged at 4,000 g for 40 minutes at room temperature. 100 μL/well of the supernatant is then transferred to glass vials (vials crimp 0.2 mL) and kept at 4° C. until LC-MS/MS analysis.
PQSs quantification is carried out by analyzing samples in discrete batches together with spiked standards and blank samples.
Calibration curves are constructed from PQS standards, and respective deuterated PQS is used as an Internal Standards (IS) to calculate the concentration of analytes in the sample and improve the precision of the assay. The back-calculated concentrations of the calibration standards from the calibration curve shall be within ±20% of the nominal values, the range of the analytical method is determined, and the lower and upper limit of quantification specified.
Liquid chromatography separations are performed using an Agilent HP1100 system (Agilent Technologies) coupled with a CTC PAL Autosampler (CTC Analytics AG). Chromatographic retention is obtained using a monolithic column (Chromolith® RP-18, 50×4.6 mm). The solvent system consists of water containing 0.1% (v/v) formic acid (A) and acetonitrile containing 0.1% (v/v) formic acid (B). The gradient elution profile is chosen as follows: 0 min: 70% A (1500 μL/min), 0.3 min: 70% A (1500 μL/min), 1.3 min: 5% A (2500 μL/min), 1.6 min: 5% A (2500 μL/min).
The MS/MS analysis is performed with an API4000 series mass spectrometer (AB Sciex™) operating in Multiple Reaction Monitoring (MRM) mode and equipped with a TIS ion source. The specific ions monitored are PQS (m/z 260→m/z 175) and D4-PQS (m/z 264→m/z 179). The computer systems used in this study to acquire and quantify data may be an Analyst™ v1.5.
PQS in the presence of different concentrations of test compound are expressed as percentage of inhibition of the basal level in control samples. Curve fitting and IC50 estimations are carried out using a four parameter logistic model using GraphPad Prism v.5 program.

The subject of assay [2] is PQS. The experiment in a line: Assay for PQS Inhibition (6 Hour Incubation). It is filed as cell-based, P. aeruginosa PA14 wild-type strain. The conditions noted are these: Pseudomonas aeruginosa, PA14, 6 h, read-out: PQS (6 hr) IC50 (μM). How it is done: (§1) A concentration range with 7 test concentrations is chosen for each test compound. Typically concentration ranges for the PQS and HHQ assays are from 0.03 to 31.6 μM. Compounds are prepared in solvent, usually DMSO, at either 200 or 500 times the final test concentration.
(§2) P. aeruginosa PA14 wild-type strain is inoculated into 5 ml LB broth in a 15 ml sterile glass culture tube and incubated overnight at 37° C. under shaking (˜240 rpm). After overnight incubation, the bacterial culture is diluted in fresh LB broth to an OD600 nm=0.04, and 5 mL aliquots of the diluted bacterial culture are distributed into 15-mL glass tubes. 10 μL of test compound at 500 times the final test concentration or 25 μL of test compound at 200 times the final test concentration or solvent alone is added to each of the bacterial suspension tubes, and the tubes are incubated at 37° C. under shaking (300 rpm) for 6 hours. At the end of the incubation period, a 0.5 mL aliquot of bacterial suspension is transferred from each 15 mL glass tube, after shaking, to a 2 mL polypropylene vial. 0.5 mL of methanol-containing D4-PQS (deuterated-PQS), D4-HHQ (deuterated-HHQ) and 2% acetic acid are added to each 2 mL vial and each vial is vigorously shaken. The vials are then centrifuged for 5 minutes at 12,000 g, and 200 μL of supernatant from each vial is transferred to a glass vial (vials crimp 0.2 mL), and the sealed vials are kept at 4° C. until LC-MS/MS analysis is performed. HAQs quantification is carried out analyzing samples in discrete batches together with spiked standards and blank samples. Calibration curves are constructed from HAQs standards, and respective deuterated forms are used as Internal Standards (IS), to calculate the concentration of analytes in the sample and improve the precision of the assay. The back-calculated concentrations of the calibration standards from the calibration curve shall be within ±20% of the nominal values, the range of the analytical method is determined, and the lower and upper limit of quantification specified.
(§3) Liquid chromatography separations are performed using Agilent HP1100 system (Agilent Technologies) coupled with a CTC PAL Autosampler (CTC Analytics AG). Chromatographic retention is obtained using a monolithic column (Chromolith® RP-18, 50×4.6 mm). The solvent system consists of water containing 0.1% (v/v) formic acid (A) and acetonitrile containing 0.1% (v/v) formic acid (B). The gradient elution profile is chosen as follows: 0 min: 70% A (1500 μL/min), 0.3 min: 70% A (1500 μL/min), 1.3 min: 5% A (2500 μL/min), 1.6 min: 5% A (2500 μL/min).
(§4) The MS/MS analysis is performed with a API4000 series mass spectrometer (AB Sciex™) operating in Multiple Reaction Monitoring (MRM) mode and equipped with a TIS ion source. The specific ions monitored are PQS (m/z 260→m/z 175), D4-PQS (m/z 264→m/z 179), HHQ (m/z 244→m/z 159) and D4-HHQ (m/z 248→m/z 163). PQS and HHQ in presence of different test compound concentrations are expressed as percentage of inhibition of the basal level in control samples.

Another assay has as its system HHQ. The experiment in a line: Assay for HHQ Inhibition (6 Hour Incubation). It counts as cell-based, P. aeruginosa PA14 wild-type strain. The conditions noted are these: Pseudomonas aeruginosa, PA14, 6 h, read-out: HHQ (6 hr) IC50 (μM). The protocol: as §1, §2, §3, §4

The term IC50 denotes the concentration at which inhibition is half-maximal.

With `N#Cc1ccc(NC(=O)CCc2nc3ccc([N+](=O)[O-])cc3[nH]2)cc1` [Compound 148, N-(4-cyanophenyl)-3-(6-nitro-1H-benzo[d]imidazol-2-yl)propanamide], the IC50 was 1 to 10 µM in the assay on Pyocyanin and 5 to 10 µM with PQS [1].

Regarding `N#Cc1ccc(NC(=O)COc2nc3ccc([N+](=O)[O-])cc3[nH]2)cc1` [Compound 149, N-(4-cyanophenyl)-2-((6-nitro-1H-benzo[d]imidazol-2-yl)oxy)acetamide], the IC50 is 1 to 10 µM in the assay with Pyocyanin and more than 10 µM in the assay on PQS [1].

For `O=C(COc1nc2ccc([N+](=O)[O-])cc2[nH]1)Nc1ccc(Cl)cc1` [Compound 150, N-(4-chlorophenyl)-2-((6-nitro-1H-benzo[d]imidazol-2-yl)oxy)acetamide], the IC50 is 1 to 10 µM in the assay with Pyocyanin and more than 10 µM in the assay with PQS [1].

As to `O=C(CNc1nc2ccccc2[nH]1)Nc1ccc(Oc2cccnc2)cc1` [Compound 151], the IC50 in the assay with Pyocyanin and in the assay with PQS [1] was more than 10 µM throughout.

For the compound `Cc1cc(NCC(=O)Nc2ccc(C#N)c(Cl)c2)ccc1Br` [Compound 153], the half-maximal inhibitory concentration (IC50) in the assay on Pyocyanin and in the assay on PQS [1] was more than 10 µM in each case.

Turning to `Cc1cc(F)ccc1NC(=O)CNc1ccc(C#N)cc1` [Compound 154], the IC50 in the assay with Pyocyanin and with PQS [1] was more than 10 µM in each case.

As for `N#Cc1ccc(NC(=O)CNc2ccc(F)cc2)cc1` [Compound 155], the IC50 in the assay on Pyocyanin and with PQS [1] was more than 10 µM throughout.

Turning to `N#Cc1ccc(NC(=O)CNc2ccc(Cl)cc2)cc1` [Compound 156], the IC50 in the assay with Pyocyanin and with PQS [1] was more than 10 µM in each case.

Consider `N#Cc1ccc(NCC(=O)Nc2ccc(F)c(F)c2)nc1` [Compound 157], for which the concentration for half-maximal inhibition (IC50) in the assay with Pyocyanin and with PQS [1] was more than 10 µM throughout.

With `O=C(CNc1cccc(F)c1)Nc1cccc(Oc2ccccc2)c1` [Compound 158], the concentration for half-maximal inhibition (IC50) in the assay with Pyocyanin and in the assay with PQS [1] was more than 10 µM each time.

For the compound `O=C(CNc1nc2ccc(Cl)cc2[nH]1)Nc1ccc(Oc2cccnc2)cc1` [Compound 159, 2-((5-chloro-1H-benzo[d]imidazol-2-yl)amino)-N-(4-(pyridin-3-yloxy)phenyl)acetamide], the half-inhibitory concentration (IC50) in the assay with PQS [2] was less than 1 µM; with HHQ it was less than 1 µM; in the assay on Pyocyanin, 0.1 to 1 µM.
